Reference: BindingDB's records for doi:10.1016/j.bmcl.2012.12.050 (Actelion Pharmaceuticals, 2013)

Test: Antagonist activity against CRTh2 receptor in human eosinophils assessed as cell shape change

For `N#C/C(=C\c1cn(CC(=O)O)c2ccccc12)C(=O)N1CCCc2ccccc21`, the IC50 was 160 nM.
